We go through 4 substances from patent US4569791A, “Anti-diabetic compounds” (Eli Lilly and Company, priority 1984, dated 1986).

Test [1] concerns insulin receptor on isolated fat cells. The test can be described thus: Isolated Fat Cell Radioreceptor Assay (displacement of 125I-labeled insulin). To be noted: for Relative Potency: isolated fat cell radioreceptor assay, human proinsulin = 1; for ED50: isolated fat cells, 125I-labeled insulin 1-2×10^-11 M, 15° C., two hours. It counts as binding. As for the experimental part: B. Isolated Fat Cell Radioreceptor Assay
Isolated fat cells were prepared by a modification [Huber, C. T., Solomon, S. S., and Duckworth, W. C., J. Clin. Invest. […] All incubations were in Krebs-Ringer-Hepes (KRH) buffer, pH 7.4, with 4% bovine serum albumin (BSA) in a total volume of 2 ml. […] At selected times, triplicate 300 μl aliquots were removed and added to microfuge tubes containing 100 μl dinonyl phthalate [see Gliemann, J., Osterlind, K., Vinten, J., and Gammeltoft, S., Biochem. Biophys. Acta. […] After centrifugation for one minute in a microfuge, the tubes were cut through the oil layer, and the cell pellet was counted using a gamma counter to determine binding.
In general terms: Loss of bound radioactivity is the signal in a displacement assay; it reports binding, not function.

Another test relates to isolated rat adipocytes. The test can be described thus: Biological Activity in Isolated Rat Adipocytes (incorporation of 2-3H-glucose in total fat cell lipid). The class given is cell-based. As to conditions: for Relative Potency: biological activity in rat adipocytes, human proinsulin = 1; for ED50: rat adipocytes, 2-3H-glucose incorporation into lipid, 37° for 1 hr, mean ±SEM. As for the experimental part: C. Biological Activity in Isolated Rat Adipocytes
Adipocytes were prepared from epididymal fat pads by a modification (Huber, supra) of the collagenase digestion procedure of Rodbell, supra. Krebs-Ringer-HEPES (KRH) buffer, pH 7.4, containing 4% bovine serum albumin and 0.55 mM glucose was used in all isolation and incubation steps.
Biological activity was assessed according to the method of Moody, A. J., Stan, M. A., Stan, M., and Glieman, J., Horm. Metab. Res. 6, 12-16 (1974) by monitoring the incorporation of 2-^3 H-glucose in total fat cell lipid. […] Radioactivity was determined in a Searle Isocap 300 liquid scintillation counter at an efficiency of approximately 30%. Blanks were prepared in which the scintillation fluid was added to the vials prior to the addition of cells. The average counts obtained from these vials were subtracted from those observed in all other samples.
Competitive binding curves and biological activity dose-response curves were analyzed using the PREFIT and ALLFIT programs [DeLean, A., Munson, P. J., and Rodbard, D., Am. J. Physiol. 235, E97-E102 (1978)] based on a four-parameter logistic model. These analyses indicated the concentration of insulin or proinsulin necessary to produce a half-maximal response, as well as the maximal and minimal values. All values are presented as the mean ±SEM.

In test [2] the test system is insulin receptor on IM-9 cells. The test can be described thus: IM-9 Radioreceptor Assay (displacement of 125I-insulin). The class given is binding, human. As to conditions: for ED50: IM-9 cells, 125I-insulin 1-2×10^-11 M, 15° C., two hours; for Relative Potency: IM-9 radioreceptor assay, human proinsulin = 1. The procedure:
A. IM-9 Radioreceptor Assay
IM-9 cells were grown in RPMI media containing 2 mM glutamine, 25 mM HEPES, and 10% fetal bovine serum. […] Incubations were carried out in 1.5 ml microfuge tubes at 15° C. for two hours. Concentrations of stock solutions containing insulin, proinsulin, or compound of this invention used in the binding studies were established by amino acid analysis and by their absorbance at 276 nm. The cells were resuspended during the assay every 30 minutes by inverting the tubes several times. At the end of the incubation, the tubes were centrifuged for one minute in a Beckman Microfuge, the supernant was aspirated, the tips of the tubes containing the cell pellet were excised, and the radioactivity was measured.

(32-33 split)HPI [(32-33 split) HPI]: the “Relative Potency” value (in test [1]; in the test with isolated rat adipocytes; in test [2]) was 5 each time. Further, the ED50 was 5.29 ± 1.8 × 10^-8 M in test [1], 2.56 ± 0.2 × 10^-9 M with isolated rat adipocytes and 5.92 ± 0.7 × 10^-9 M in test [2].

Take des(31,32)HPI [des (31,32) HPI]: the “Relative Potency” value in test [1] is recorded as 9; in the test with isolated rat adipocytes, 5; in test [2], 5. Further, the results for the ED50 (in test [1]; in the test with isolated rat adipocytes; in test [2]) were 2.85 ± 0.1 × 10^-8 M, 2.68 ± 0.5 × 10^-9 M and 5.60 ± 0.3 × 10^-9 M, respectively.

On to Human Insulin [reference compound], for which the ED50 in the test on isolated rat adipocytes is 5.32 ± 0.7 × 10^-11 M.

With Human Proinsulin [reference compound], the “Relative Potency” value (in test [1]; in the test with isolated rat adipocytes; in test [2]) was 1 throughout. The ED50 in test [1] is reported as 2.55 ± 0.6 × 10^-7 M; in the test on isolated rat adipocytes, 1.24 ± 0.2 × 10^-8 M; in test [2], 2.97 ± 0.2 × 10^-8 M.
